In series [1] the test system is human cord-blood-derived mast cells (CBMC). The experiment in a line: TNF-α release by IgE-anti IgE-activated CBMC (ELISA). The series is classed as cell-based. To be noted: Mast cell, 4 hours of stimulation. The protocol: (§1) (see Supporting Information; Methods S1). […] Assays of β-hexosaminidase release and TNF-α release were made by stimulating the CBMC with 1 µg/ml of goat anti-human IgE (Vector Laboratories) for 30 minutes or 4 hours, respectively. β-hexosaminidase was measured in the supernatant and in the sonicated cell pellets and its net release calculated. For TNF-α determination, the cell-free supernatants were collected by centrifugation and frozen at −80°C until determination of mediator content by the use of a specific ELISA kit according to manufacturer's instructions (Coulter, France). All assays were performed in duplicate and counts were repeated twice for each well.
(§2) Human CBMC were produced by long-term culture of CD34+ progenitors purified from normal cord-blood. […] At the beginning of the culture, rhIL-3 (1 ng/ml) (R&D Systems Europe, France) was also added to induce maximal expansion of haematopoietic progenitors. After 3 days the IL-3 was removed and 4 days later cells were transferred to a complete serum-free medium containing rmSCF at 100 ng/ml, which was renewed every 7 days thereafter. After 8 weeks in culture ≥99% of the cells were identified as being mast cells by May-Grünwald-Giemsa staining of cytocentrifuged samples.
(In general: An ELISA detects its analyte on a solid surface through an enzyme-linked reagent.)

Series [2] relates to Salmonella typhimurium and Escherichia coli. Particulars: cited from earlier work.
Series [3] concerns human cord-blood-derived mast cells (CBMC). As to the kind of experiment: FcεRI-mediated degranulation (β-hexosaminidase release) of IgE-anti IgE activated CBMC. To be noted: Mast cell, 0.5 h, 30 minutes of stimulation. The series is classed as cell-based. The protocol: as §1, §2

The term inhibition denotes the relative decrease from the control value, in per cent. Read a high inhibition as a strong effect. For the compound `Cc1ccc(NC(=O)c2ccc(CN3CCN(C)CC3)cc2)cc1Nc1nccc(-c2cccnc2)n1` [imatinib, reference compound], the inhibition at 0.1 µM in series [1] (0.1 µM) was 4%; in series [3] (0.1 µM), 2%. Further, the inhibition at 1 µM in series [1] (1.0 µM) stood at 24%; in series [3] (1.0 µM), 8%. Besides, the results for the inhibition at 10 µM in series [1] (10 µM) and in series [3] (10 µM) were 45% and 19%, respectively. Further, the “bacterial reverse mutation test” value in series [2] was “positive”.

The values are drawn from publication PMC2746281 (PLoS ONE, 2009).
